Test results taken from ChEMBL document CHEMBL3596146, “Design, synthesis, and biological evaluation of a series of alkoxy-3-indolylacetic acids as peroxisome proliferator-activated receptor γ/δ agonists” (Bioorg Med Chem, 2015).
pEC50: −log10 of the molar value. Activity calls are given as the source filed them. No cut-off for these calls is given here.

Tests used:
[1] = tested on: Mus musculus; assay: Decrease in fasting blood glucose level in C57BLKS/J-Lepr/Lepr db/db mouse at 10 mg/kg, po qd for 18 days administered via gavage by ELISA; assay type: functional, organism-based
[2] = tested on: Mus musculus; assay: Decrease in serum insulin level in C57BLKS/J-Lepr/Lepr db/db mouse at 10 mg/kg, po qd for 18 days administered via gavage by ELISA; assay type: functional, organism-based
[3] = tested on: Mus musculus; assay: Increase in triglyceride content in C57BLKS/J-Lepr/Lepr db/db mouse liver at 10 mg/kg, po administered via gavage by hematoxylin-eosin staining; assay type: functional
[4] = tested on: Mus musculus; assay: Increase in body weight in C57BLKS/J-Lepr/Lepr db/db mouse at 10 mg/kg, po qd for 18 days administered via gavage measured on day 16 relative to untreated control; assay type: ADME, organism-based; details: in vivo, 432 h
[5] = tested on: Mus musculus; assay: Decrease in serum Hb1Ac level in C57BLKS/J-Lepr/Lepr db/db mouse at 10 mg/kg, po qd for 18 days administered via gavage by ELISA; assay type: functional, organism-based
[6] = target: T1, Peroxisome proliferator-activated receptor delta (Homo sapiens, UniProt Q03181); assay: Agonist activity at PPAR-delta (unknown origin) expressed in HEK293t cells co-transfected with tk-PPRE-luciferase vector after 24 hrs by transactivation assay; assay type: cell-based, HEK-293T
T1 sequence (Q03181 whole entry): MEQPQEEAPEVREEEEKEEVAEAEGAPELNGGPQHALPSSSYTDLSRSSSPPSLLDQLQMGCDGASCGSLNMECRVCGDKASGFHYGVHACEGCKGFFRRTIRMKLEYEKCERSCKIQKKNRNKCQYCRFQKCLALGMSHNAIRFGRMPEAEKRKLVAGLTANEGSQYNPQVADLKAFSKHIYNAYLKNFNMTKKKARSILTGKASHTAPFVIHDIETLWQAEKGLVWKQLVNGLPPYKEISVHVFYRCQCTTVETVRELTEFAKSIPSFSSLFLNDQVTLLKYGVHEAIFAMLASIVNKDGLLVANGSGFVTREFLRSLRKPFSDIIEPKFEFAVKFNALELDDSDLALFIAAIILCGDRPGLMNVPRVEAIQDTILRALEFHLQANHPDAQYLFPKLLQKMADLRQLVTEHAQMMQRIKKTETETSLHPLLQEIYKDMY

[7] = target: T2, Peroxisome proliferator-activated receptor delta (Homo sapiens) (UniProt Q03181); assay: Agonist activity at PPAR-delta (unknown origin) expressed in HEK293t cells co-transfected with tk-PPRE-luciferase vector at 10 uM after 24 hrs by transactivation assay relative to GW0742; assay type: cell-based; details: HEK-293T
T2 sequence (whole entry): T1 sequence (Q03181 whole entry)

[8] = Retention time of the compound by HPLC analysis; assay type: physicochemical
[9] = tested on: Liver microsome; assay: Metabolic stability in human liver microsomes at 1 uM after 30 mins measured under phase 2 reaction by LC/MS/MS analysis; assay type: ADME; details: 0.5 h
[10] = Metabolic stability in mouse liver microsomes at 1 uM after 30 mins measured under phase 1 reaction by LC/MS/MS analysis; assay type: ADME; details: 0.5 h
[11] = target: T3, Peroxisome proliferator-activated receptor alpha (Homo sapiens) (UniProt Q07869); assay: Agonist activity at PPAR-alpha (unknown origin) expressed in CV-1 cells co-transfected with tk-PPRE-luciferase vector at 10 uM after 24 hrs by transactivation assay relative to GW7647; assay type: cell-based
T3 sequence (whole entry): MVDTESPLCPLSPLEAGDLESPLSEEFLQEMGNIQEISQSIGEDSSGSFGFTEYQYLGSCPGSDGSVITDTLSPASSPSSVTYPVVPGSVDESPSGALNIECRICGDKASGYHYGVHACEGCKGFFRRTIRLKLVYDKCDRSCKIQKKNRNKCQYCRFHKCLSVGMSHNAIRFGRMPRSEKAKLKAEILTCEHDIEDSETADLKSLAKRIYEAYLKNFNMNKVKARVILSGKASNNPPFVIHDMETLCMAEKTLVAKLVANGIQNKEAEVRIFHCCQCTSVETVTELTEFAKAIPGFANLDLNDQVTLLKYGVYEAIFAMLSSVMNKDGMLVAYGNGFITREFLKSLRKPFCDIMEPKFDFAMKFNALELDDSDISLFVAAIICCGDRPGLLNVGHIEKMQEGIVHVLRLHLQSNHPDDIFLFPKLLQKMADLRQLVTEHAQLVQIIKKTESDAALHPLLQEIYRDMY

[12] = target: T4, Peroxisome proliferator-activated receptor gamma (Homo sapiens) (UniProt P37231); assay: Agonist activity at PPAR-gamma (unknown origin) expressed in CV-1 cells co-transfected with tk-PPRE-luciferase vector at 10 uM after 24 hrs by transactivation assay relative to rosiglitazone; assay type: cell-based
T4 sequence (whole entry): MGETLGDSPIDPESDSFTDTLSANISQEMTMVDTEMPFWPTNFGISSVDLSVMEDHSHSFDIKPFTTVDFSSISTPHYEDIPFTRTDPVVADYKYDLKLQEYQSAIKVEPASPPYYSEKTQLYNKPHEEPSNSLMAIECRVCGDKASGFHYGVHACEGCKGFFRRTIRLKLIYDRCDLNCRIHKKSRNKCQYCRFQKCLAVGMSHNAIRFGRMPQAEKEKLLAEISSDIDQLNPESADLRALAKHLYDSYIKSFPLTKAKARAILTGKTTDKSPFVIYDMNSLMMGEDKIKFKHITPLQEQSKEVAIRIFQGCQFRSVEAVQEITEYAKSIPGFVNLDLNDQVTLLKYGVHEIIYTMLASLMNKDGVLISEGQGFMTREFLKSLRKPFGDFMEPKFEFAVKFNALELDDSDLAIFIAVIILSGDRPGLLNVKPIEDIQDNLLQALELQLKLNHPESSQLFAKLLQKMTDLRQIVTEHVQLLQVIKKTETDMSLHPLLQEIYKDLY

[13] = Metabolic stability in mouse liver microsomes at 1 uM after 30 mins measured under phase 2 reaction by LC/MS/MS analysis; assay type: ADME; details: 0.5 h
[14] = tested on: Liver microsome; assay: Metabolic stability in human liver microsomes at 1 uM after 30 mins measured under phase 1 reaction by LC/MS/MS analysis; assay type: ADME; details: 0.5 h
[15] = target: T5, Peroxisome proliferator-activated receptor gamma (Homo sapiens, UniProt P37231); assay: Agonist activity at PPAR-gamma (unknown origin) expressed in CV-1 cells co-transfected with tk-PPRE-luciferase vector after 24 hrs by transactivation assay; assay type: cell-based
T5 sequence (P37231 whole entry): T4 sequence (whole entry)

[16] = target: T6, Peroxisome proliferator-activated receptor alpha (Homo sapiens, UniProt Q07869); assay: Agonist activity at PPAR-alpha (unknown origin) expressed in CV-1 cells co-transfected with tk-PPRE-luciferase vector after 24 hrs by transactivation assay; assay type: cell-based
T6 sequence (Q07869 whole entry): T3 sequence (whole entry)

SMILES	Emax [7]	Retention_time [8] [min]	Emax [11] [%]	Emax [12] [%]	further results
CN(CCOc1ccc(CC2SC(=O)NC2=O)cc1)c1ccccn1 (stereo not drawn) [ROSIGLITAZONE]					inhibition [1]: Active; inhibition [2]: Active; Activity [3]: 22%; increase [4]: 10%; inhibition [5]: Active
Cc1ccc(COc2cccc(OCCCOc3ccc4c(CC(=O)O)cn(Cc5ccccc5)c4c3)c2)cc1	90.2%	18.125	26.5	130	pEC50 [6]: 5.03; Stability [9]: Stable; Stability [10]: Stable; Stability [13]: Stable; Stability [14]: Stable; pEC50 [15]: 5.89; pEC50 [16]: 4.72
Cc1ccc(COc2cccc(OCCCOc3ccc4[nH]cc(CC(=O)O)c4c3)c2)cc1	84.1%	8.984	69.3	134	pEC50 [6]: 5.14; Stability [10]: Stable; Stability [14]: Stable; pEC50 [15]: 5.77; pEC50 [16]: 4.86
O=C(O)Cc1c[nH]c2ccc(OCCCOc3cccc(OCc4ccc(F)cc4)c3)cc12	32%	7.106	25.8	66.9	
COc1ccc(COc2cccc(OCCOc3ccc4c(c3)c(CC(=O)O)cn4Cc3ccccc3)c2)cc1	122%	10.127	25.8	90.9	pEC50 [6]: 5.20; Stability [10]: Stable; Stability [14]: Unstable; pEC50 [15]: 5.72; pEC50 [16]: 5.23
O=C(O)Cc1c[nH]c2ccc(OCCOc3cccc(Cl)c3)cc12	16.2%	4.608	15.5	16.8	
O=C(O)Cc1c[nH]c2ccc(OCCCOc3cccc(Oc4ccccc4)c3)cc12	23.8%	7.305	45.4	92.5	
O=C(O)Cc1cn(Cc2ccc(F)cc2)c2ccc(OCCCOc3cccc(OCc4ccc(Cl)cc4)c3)cc12	133%	23.205	34.3	92.7	pEC50 [6]: 6.12
O=C(O)Cc1c[nH]c2ccc(OCCCOc3cccc(Oc4ccc(C(F)(F)F)cc4)c3)cc12	43.2%	9.685	61.1	119	
Cn1cc(CC(=O)O)c2cc(OCCCOc3cccc(OCc4ccc(Cl)cc4)c3)ccc21	70.8%	13.52	37.5	110	
Cc1ccc(COc2ccccc2OCCCOc2ccc3c(c2)c(CC(=O)O)cn3Cc2ccccc2)cc1	68.9%	14.49	26.7	75.1	
O=C(O)Cc1cn(Cc2ccccc2)c2ccc(OCCOc3cccc(OCc4ccc(Cl)cc4)c3)cc12	106%	17.1	40.7	81.2	
COc1ccc(Oc2cccc(OCCCOc3ccc4[nH]cc(CC(=O)O)c4c3)c2)cc1	25.6%	6.53	45	89.7	
O=C(O)Cc1cn(Cc2ccccc2)c2ccc(OCCCOc3ccccc3OCc3ccc(Cl)cc3)cc12	74.9%	15.313	27.1	89.2	
Cc1ccc(COc2ccc(OCCCOc3ccc4c(c3)c(CC(=O)O)cn4Cc3ccccc3)cc2)cc1	93.6%	21.33	18.9	92.6	
Cc1ccc(Oc2cccc(OCCCOc3ccc4[nH]cc(CC(=O)O)c4c3)c2)cc1	40.6%	9.409	60.6	145	
Cc1ccc(COc2cccc(OCCCOc3ccc4c(CC(=O)O)c[nH]c4c3)c2)cc1	37.2%	9.005	23.4	84.3	
O=C(O)Cc1c[nH]c2ccc(OCCCOc3ccccc3OCc3ccc(Cl)cc3)cc12	inactive	7.547	21	16.1	
O=C(O)Cc1c[nH]c2cc(OCCCOc3cccc(OCc4ccc(Cl)cc4)c3)ccc12	32.8%	8.836	33	81.8	
O=C(O)Cc1c[nH]c2ccc(OCCCOc3cccc(Oc4ccc(Cl)cc4)c3)cc12	37.9%	9.322	59.2	106	
COc1ccc(Oc2cccc(OCCCOc3ccc4c(c3)c(CC(=O)O)cn4Cc3ccccc3)c2)cc1	59.5%	7.257	22.3	71.1	
